Measurements reported in ChEMBL document CHEMBL3046713, “Synthesis and antimicrobial activity of pyrimidine chalcones” (2013).

Experiments:
Assay type in all cases: functional
Escherichia coli [1] = experiment: Antibacterial activity against Escherichia coli DH5[alpha] at 5 mg/ml after 24 hrs by Kirby-Bauer single disc susceptibility test; conditions: read-out: DIZ
Escherichia coli [2] = experiment: Antibacterial activity against Escherichia coli DH5[alpha] at 2.5 mg/ml after 24 hrs by Kirby-Bauer single disc susceptibility test; conditions: read-out: DIZ
Rhodococcus rhodochrous [3] = experiment: Antibacterial activity against Rhodococcus rhodochrous MTCC 265 at 5 mg/ml after 24 hrs by Kirby-Bauer single disc susceptibility test; conditions: MTCC 265, 24 h, read-out: DIZ
Rhodococcus rhodochrous [4] = experiment: Antibacterial activity against Rhodococcus rhodochrous MTCC 265 at 2.5 mg/ml after 24 hrs by Kirby-Bauer single disc susceptibility test; conditions: MTCC 265, 24 h, read-out: DIZ

Row | Compound | zone of inhibition at 5000 µg/mL (Escherichia coli [1]) | zone of inhibition at 2500 µg/mL (Escherichia coli [2]) | zone of inhibition at 5000 µg/mL (Rhodococcus rhodochrous [3]) | zone of inhibition at 2500 µg/mL (Rhodococcus rhodochrous [4])
1 | Cn1c(O)c(C(=O)/C=C/c2ccc(OCc3cn(-c4ccc(F)cc4)nn3)cc2)c(=O)n(C)c1=O | 0 mm | 0 mm | 0 mm | 0 mm
2 | Cn1c(O)c(C(=O)/C=C/c2ccc(OCc3cn(-c4ccccc4)nn3)cc2)c(=O)n(C)c1=O | 3 mm | 4 mm | 3 mm | 4 mm
3 | COc1cccc(-n2cc(COc3ccc(/C=C/C(=O)c4c(O)n(C)c(=O)n(C)c4=O)cc3)nn2)c1 | 3.5 mm | 3 mm | 2 mm | 3 mm
4 | Cc1cccc(-n2cc(COc3ccc(/C=C/C(=O)c4c(O)n(C)c(=O)n(C)c4=O)cc3)nn2)c1 | 2 mm | 2 mm | 2 mm | 3 mm
5 | Cn1c(O)c(C(=O)/C=C/c2ccc(OCc3cn(-c4ccc(Br)cc4)nn3)cc2)c(=O)n(C)c1=O | 0 mm | 0 mm | 2 mm | 3 mm
6 | Cn1c(O)c(C(=O)/C=C/c2ccc(OCc3cn(-c4ccc(Cl)cc4)nn3)cc2)c(=O)n(C)c1=O | 0 mm | 0 mm | 0 mm | 0 mm
7 | Cn1c(O)c(C(=O)/C=C/c2ccc(OCc3cn(Cc4ccccc4)nn3)cc2)c(=O)n(C)c1=O | 0 mm | 0 mm | 2 mm | 2 mm
8 | COc1ccc(-n2cc(COc3ccc(/C=C/C(=O)c4c(O)n(C)c(=O)n(C)c4=O)cc3)nn2)cc1 | 0 mm | 0 mm | 2 mm | 2 mm
